Where a chain is given by its changes, count along the chain named. Calls of active or inactive are those of the source. No cut-off for these calls is given here.
How the values were obtained:
Rattus norvegicus [1] = organism: Rattus norvegicus; assay: Anticonvulsant activity against PTZ-induced epileptic seizure Sprague-Dawley rat model assessed as latency time of seizures compound infused into hippocampal region and 10 mins later injected with PTZ and measured for 2 hrs post PTZ-stimulation (reference value: 108.5 +/- 8.63 sec); assay type: functional
KCNMA1/KCNMB4 = KCNMA1/KCNMB4 (Homo sapiens, UniProt Q12791+Q86W47); assay: Inhibition of human BK alpha/beta4 channel expressed in HEK293T cells assessed as K+ outward current fraction at 10 uM at -80 mV holding potential by whole cell patch clamp method relative to control; assay type: cell-based
Rattus norvegicus [2] = organism: Rattus norvegicus; assay: Effect on neuronal network in PTZ-induced epileptic seizures Sprague-Dawley rat model assessed as lowered PSD at alpha wave band compound infused into hippocampal region and 10 mins later injected with PTZ and measured after 2 hrs by power spectral density analysis; assay type: functional, organism-based
Homo sapiens [3] = organism: Homo sapiens; assay: Selectivity ratio of compound Kd for NT-495 fluorophore reagent labelled human BK beta4 E104K mutant to compound Kd for NT-495 fluorophore reagent labelled human BK beta4 (45 to 166 residues) by microscale thermophoresis assay
Rattus norvegicus [4] = organism: Rattus norvegicus; assay: Inhibition of field potential response in PTZ-induced epileptic seizure Sprague-Dawley rat model compound infused into hippocampal region and 10 mins later injected with PTZ and measured after 2 hrs by microarray electrode based analysis; assay type: functional, organism-based
Homo sapiens [5] = organism: Homo sapiens; assay: Selectivity ratio of compound Kd for NT-495 fluorophore reagent labelled human BK beta4 Q124A mutant to compound Kd for NT-495 fluorophore reagent labelled human BK beta4 (45 to 166 residues) by microscale thermophoresis assay
[6] = target: T1, Calcium-activated potassium channel subunit beta-4 (Homo sapiens) (UniProt Q86W47); assay: Binding affinity to 15N-labelled human BK beta4 (45 to 166 residues) at compound: protein mole ratio of 1:4 by 1H-15N HSQC NMR spectroscopy
T1 sequence (whole entry): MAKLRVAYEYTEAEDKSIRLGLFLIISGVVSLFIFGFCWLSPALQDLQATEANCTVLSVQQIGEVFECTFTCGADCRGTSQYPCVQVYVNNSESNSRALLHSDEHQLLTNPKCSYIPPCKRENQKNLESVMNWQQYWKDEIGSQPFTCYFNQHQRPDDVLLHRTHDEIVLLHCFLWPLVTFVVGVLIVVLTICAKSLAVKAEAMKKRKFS

Homo sapiens [7] = organism: Homo sapiens; assay: Inhibition of human BK alpha/human beta4 Q124A mutant expressed in HEK293T cells assessed as K+ fractional outward current at 10 uM at -80 holding potential by whole cell patch clamp technique relative to control; assay type: cell-based
Homo sapiens [8] = organism: Homo sapiens; assay: Inhibition of human BK alpha/human beta-4 E104K mutant expressed in HEK293T cells assessed as K+ fractional outward current at 10 uM at -80 mV holding potential by whole cell patch clamp technique relative to control; assay type: cell-based
Rattus norvegicus [9] = organism: Rattus norvegicus; assay: (§1) Inhibition of C-Fos expression in PTZ-induced epileptic seizures Sprague-Dawley rat model assessed as inhibition of FLI-positive pyramidal neurons in CA3 region of ipsilateral hippocampus at 10 uM compound infused into hippocampal region and 10 mins later injected with PTZ and measured after 2 hrs by immunohistochemistry; assay type: functional, organism-based
Rattus norvegicus [10] = organism: Rattus norvegicus; assay: as §1, with “granular” for “pyramidal”, “DG” for “CA3”; assay type: functional, organism-based
Rattus norvegicus [11] = organism: Rattus norvegicus; assay: Effect on neuronal network in PTZ-induced epileptic seizures Sprague-Dawley rat model assessed as lowered PSD at delta wave band compound infused into hippocampal region and 10 mins later injected with PTZ and measured after 2 hrs by power spectral density analysis; assay type: functional, organism-based
Rattus norvegicus [12] = organism: Rattus norvegicus; assay: Effect on neuronal network in PTZ-induced epileptic seizures Sprague-Dawley rat model assessed as reduced total PSD frequency waves compound infused into hippocampal region and 10 mins later injected with PTZ and measured after 2 hrs by power spectral density analysis; assay type: functional, organism-based
[13] = system: T2, Calcium-activated potassium channel subunit beta-4 (Homo sapiens), Q86W47 [E122K]; assay: Binding affinity to NT-495 fluorophore reagent labelled human BK beta4 E122K mutant incubated for 30 mins by microscale thermophoresis assay
T2 sequence (whole entry): T1 sequence (whole entry) with E122K

Rattus norvegicus [14] = organism: Rattus norvegicus; assay: as §1, with “CA1” for “CA3”; assay type: functional, organism-based
[15] = target: Calcium-activated potassium channel subunit beta-4 (Homo sapiens, UniProt Q86W47, E104K); assay: Binding affinity to NT-495 fluorophore reagent labelled human BK beta4 E104K mutant incubated for 30 mins by microscale thermophoresis assay
Calcium-activated potassium channel subunit beta-4 (Homo sapiens, UniProt Q86W47, E104K), sequence (Q86W47 whole entry E104K, the tested form may be a part): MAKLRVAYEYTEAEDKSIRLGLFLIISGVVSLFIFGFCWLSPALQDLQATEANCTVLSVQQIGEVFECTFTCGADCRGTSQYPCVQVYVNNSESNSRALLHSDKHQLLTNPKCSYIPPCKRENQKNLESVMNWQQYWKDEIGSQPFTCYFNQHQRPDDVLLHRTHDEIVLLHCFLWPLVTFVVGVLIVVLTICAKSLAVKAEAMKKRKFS

Rattus norvegicus [16] = organism: Rattus norvegicus; assay: (§2) Neuroprotective activity in PTZ-induced epileptic seizure Sprague-Dawley rat model assessed as inhibition of hippocampal destruction by measuring increase in Nissl stained granular neurons in ipsilateral hippocampus DG region compound infused into hippocampal region and 10 mins later injected with PTZ and measured after 3 days by Nissl staining based microscopic analysis; assay type: functional, organism-based
[17] = target: Calcium-activated potassium channel subunit beta-4 (Homo sapiens, UniProt Q86W47, Q124A); assay: Binding affinity to NT-495 fluorophore reagent labelled human BK beta4 Q124A mutant incubated for 30 mins by microscale thermophoresis assay
Calcium-activated potassium channel subunit beta-4 (Homo sapiens, UniProt Q86W47, Q124A), sequence (Q86W47 whole entry Q124A): as the sequence (Q86W47 whole entry E104K, the tested form may be a part) above, with K104E, Q124A counted along it

Rattus norvegicus [18] = organism: Rattus norvegicus; assay: as §1, with “granular” for “pyramidal”, “DG” for “CA3”, “contralateral” for “ipsilateral”; assay type: functional, organism-based
[19] = target: T3, KCNMA1/KCNMB4 (Rattus norvegicus) (UniProt Q62976+Q9ESK8); assay: Inhibition of BK alpha/beta-4 in rat hippocampal pyramidal neurons assessed as inhibition of PTZ-induced action potential at -80 mV holding potential at 300 pA current injection measured after 10 mins by whole cell current clamp assay
[20] = target: T3, KCNMA1/KCNMB4 (Rattus norvegicus); assay: Inhibition of BK alpha/beta-4 in PTZ-stimulated rat hippocampal pyramidal neurons assessed as longer interval of interspike at -80mV holding potential measured after 10 mins during 300pA current injection by whole cell current clamp assay; assay type: protein-complex assay
[21] = target: T3, KCNMA1/KCNMB4 (Rattus norvegicus); assay: Inhibition of BK alpha/beta-4 in PTZ-stimulated rat hippocampal pyramidal neurons assessed as appearance of more action potential failures at -80mV holding potential measured after 10 mins during 300pA current injection by whole cell current clamp assay; assay type: protein-complex assay
Rattus norvegicus [22] = organism: Rattus norvegicus; assay: as §2, with “contralateral” for “ipsilateral”; assay type: functional, organism-based
Rattus norvegicus [23] = organism: Rattus norvegicus; assay: Anticonvulsant activity against PTZ-induced epileptic seizure Sprague-Dawley rat model assessed as mortality rate compound infused into hippocampal region and 10 mins later injected with PTZ and measured for 2 hrs post PTZ-stimulation (reference value: 33.33%); assay type: functional
[24] = target: T4, Calcium-activated potassium channel subunit beta-4 (Homo sapiens, UniProt Q86W47); assay: Binding affinity to NT-495 fluorophore reagent labelled human BK beta4 (45 to 166 residues) incubated for 30 mins by microscale thermophoresis assay; settings: read-out: Kd
T4 sequence (Q86W47 whole entry): T1 sequence (whole entry)

Rattus norvegicus [25] = organism: Rattus norvegicus; assay: as §2, with “pyramidal” for “granular”, “contralateral” for “ipsilateral”, “CA3” for “DG”; assay type: functional, organism-based
Rattus norvegicus [26] = organism: Rattus norvegicus; assay: as §2, with “pyramidal” for “granular”, “contralateral” for “ipsilateral”, “CA1” for “DG”; assay type: functional, organism-based

CC[C@H](C)[C@H](NC(=O)[C@H](CC(C)C)NC(=O)CNC(=O)[C@H](Cc1ccccc1)NC(=O)[C@H](CO)NC(=O)CN)C(=O)N[C@@H](CC(=O)O)C(=O)N[C@H](C(=O)N[C@@H](CCCCN)C(=O)N[C@H]1CSSC[C@@H]2NC(=O)[C@H](CCCCN)NC(=O)CNC(=O)[C@H](CCC(N)=O)NC(=O)CNC(=O)[C@H](CO)NC(=O)CNC(=O)[C@H]([C@@H](C)O)NC(=O)[C@H](C(C)C)NC(=O)[C@H](CCCCN)NC(=O)[C@H](CCCCN)NC(=O)[C@@H]3CSSC[C@@H](C(=O)N[C@@H](Cc4ccc(O)cc4)C(=O)O)N[C@@H](CCCNC(=N)N)C(=O)[C@H](CSSC[C@H](NC(=O)[C@H](CCC(=O)O)NC(=O)[C@H](CO)NC(=O)[C@H](CO)NC(=O)[C@H](C)NC(=O)[C@H](Cc4ccccc4)NC1=O)C(=O)N[C@@H](Cc1c[nH]c4ccccc14)C(=O)N[C@@H]([C@@H](C)O)C(=O)N[C@@H](C)C(=O)N3)N[C@@H](CCC(N)=O)C(=O)NC(=O)[C@H](CC(N)=O)NC(=O)[C@H](CC(N)=O)NC(=O)[C@H](CCC(N)=O)NC2=O)C(C)C
Time (Rattus norvegicus [1]): 378.5 s
Ratio (KCNMA1/KCNMB4): 0.33
Activity (Rattus norvegicus [2]): Active
Selectivity ratio (Homo sapiens [3]): 1.4
inhibition (Rattus norvegicus [4]): Active
Selectivity ratio (Homo sapiens [5]): 2
Activity [6]: Active
Ratio (Homo sapiens [7]): 0.6
Ratio (Homo sapiens [8]): 0.94
inhibition (Rattus norvegicus [9]): Active
inhibition (Rattus norvegicus [10]): Active
Activity (Rattus norvegicus [11]): Active
inhibition (Rattus norvegicus [12]): Active
Activity [13]: inactive
inhibition (Rattus norvegicus [14]): Active
Kd [15]: 782 µM
Activity (Rattus norvegicus [16]): Active
Kd [17]: 975 µM
inhibition (Rattus norvegicus [18]): Active
inhibition [19]: Active
inhibition [20]: Active
inhibition [21]: Active
Activity (Rattus norvegicus [22]): Active
mortality (Rattus norvegicus [23]): 0%
Kd [24]: 511 µM
Activity (Rattus norvegicus [25]): Active
Activity (Rattus norvegicus [26]): Active
